Assay results taken from patent publication US7144867B2, “Anticancer glycoside compounds” (priority 2004, dated 2006).

Legend:
AsPC-1 cells = assay: Cell proliferation by cell counting; type: cell-based, human; details: 4 μg/mL
Description: Cell culture. The poorly differentiated human pancreatic cancer line AsPC-1 was purchased from the American Type Culture Collection (ATCC, Manassas, Va., USA). Cells were cultured in MEM medium supplemented with penicillin G (100 U/mL), streptomycin (100 U/mL) and 10% FBS at 37° C. in humidified air with 5% CO2. Cells were harvested by incubation in trypsin-EDTA solution for 10–15 minutes. Cells were then centrifuged at 300×g for 5 minutes and cell pellets were suspended in fresh culture medium prior to seeding into culture flasks or plates.
Cell proliferation assay. Cell growth was analyzed by ^3H-methyl thymidine incorporation and cell counting. Following treatment of pancreatic cancer cells with a series of concentrations of frondoside A from 1 μg/mL to 16 μg/mL, cellular DNA synthesis was assayed by adding ^3H-methyl thymidine at 0.5 μLCi/well. After 2 hours incubation, the cells were washed twice with PBS, precipitated with 10% TCA for two hours, and solubilized from each well with 0.5 ml of 0.4 N NaOH. Incorporation of ^3H-methyl thymidine into DNA was measured by adding scintillation liquid and counting in a scintillation counter (LKB BackBeta, Wallac, Turku, Finland). […] The cells were counted using Z1-Coulter Counter (Luton, UK).

caspase 3 = assay: Western blotting, caspase 3 in AsPC-1 cells; type: cell-based, human; details: 4 μg/mL, time-dependent (FIG. 3)
Description: (§1) Western blotting. Cells were seeded into flasks and cultured to 50% to 60% confluence for 24 hours. Cells were then placed in serum-free medium with or without 4 μg/mL frondoside A for periods of 0, 24, 48 and 72 hours respectively. Proteins were extracted from attached and floating cells in lysis buffer containing 4% SDS. Protein concentrations were determined using the bicinchoninic acid assay with BSA as standard. Western blotting was carried out. In brief, equal amounts of protein in the cell lysates were separated on 15% SDS-PAGE and the proteins were transferred onto nitrocellulose membranes. After blocking non-specific sites with dried milk, membranes were incubated with the appropriate dilution of primary antibody. Membranes were then incubated with a horseradish peroxidase conjugated secondary antibody. Proteins were detected using an enhanced chemiluminescence detection system.

caspase 7 = assay: Western blotting, caspase 7 in AsPC-1 cells; type: cell-based, human; details: 4 μg/mL, time-dependent (FIG. 3)
Description: as §1

Bcl-2 = assay: Western blotting, Bcl-2 in AsPC-1 cells; type: cell-based, human; details: 4 μg/mL, time-dependent (FIG. 4)
Description: as §1

Mcl-1 = assay: Western blotting, Mcl-1 in AsPC-1 cells; type: cell-based, human; details: 4 μg/mL, time-dependent (FIG. 4)
Description: as §1

[1] = tested on: angiogenesis in the animal; assay: Treatment of animals, anti-angiogenic evaluation (Example 6); type: in vivo; details: contemplated; range of appropriate doses
Description: Frondoside A or B is evaluated for anti-angiogenic (e.g., for research, drug screening or therapeutic purposes) in live animals. Animals (e.g., having or modeling a disease characterized by unwanted angiogenesis) are treated with a range of appropriate doses of Frondoside A or B. Exemplary dosages and dosage schedules include, but are not limited to, those described herein.

## COC1C(O)C(CO)OC(OC2C(O)COC(OC3C(C)OC(OC4C(OC5CCC6(C)C7CCC89C(=O)OC(C)(CCCC(C)C)C8C(OC(C)=O)CC9(C)C7=CCC6C5(C)C)OCC(OS(=O)(=O)[O-])C4O)C(OC4OCC(O)C(O)C4O)C3O)C2O)C1O.[Na+] [Frondoside A, 3-O-methyl-β-D-glucopyranosyl-(1→3)-β-D-xylopyranosyl-(1→4)-[β-D-xylopyranosyl-(1→2)]-β-D-quinovopyranosyl-(1→2)-4-O-sodium sulfate-β-D-xylopyranosyl-3-O-holost-7(8)-en-3β-ol-16β-O-acetate]
AsPC-1 cells; 48 and 72 hours
  cell number compared to control: marked and progressive decrease in cell number
AsPC-1 cells; first 24 hours
  cell number compared to control: no obviously effect
Caspase 3
  activation of caspase 3 (cleavage of procaspase 3): cleaved into products of lower molecular weight
Caspase 7
  activation of caspase 7: reduction in the amounts of the respective procaspase forms
Bcl-2
  expression of Bcl-2: decreased expression
Mcl-1
  expression of Mcl-1: decreased expression
[1]
  angiogenesis in the animal: inhibits angiogenesis
